One assay addresses T1, ScLDM6×His I471T (Saccharomyces cerevisiae, UniProt P10614, I471T).
T1 construct: structurally aligned mutations in recombinant hexahistidine-tagged full-length Saccharomyces cerevisiae LDM6×His (ScLDM6×His); 6×His (hexahistidine) (C); made in house; host or cells: Saccharomyces cerevisiae strain AD3Δ ScErg11 I471T (overexpression from the PDR5 locus, native ERG11 disrupted)
Put plainly: Type II azole binding to affinity purified ScLDM6×His I471T. To be noted: for pIC50: I471T mutant enzyme, in the presence of 2 µM enzyme, read-out: IC50 from type II binding curves; for IC50: 2 µM enzyme, μM, read-out: [Azole]0.5; for ΔAmax: type II binding. The protocol:
Protein purification was carried out using established methods. In brief, a 12 L culture for each control and test strain was grown overnight in 1 L volumes of YPD medium (1% [w/v] yeast extract [BD Difco], 2% [w/v] peptone [BD Difco], and 2% [w/v] D-glucose) in baffled 3 L flasks at 30 °C, with constant agitation (140 rpm). Cells harvested by centrifugation were broken by bead-beating and crude membrane fractions obtained by differential centrifugation, as previously described. The protein concentration of the crude membranes was estimated using the Lowry assay, with bovine serum albumin (Thermo Fisher) used as the protein standard. The crude membranes (1 g at 2.5 mg/mL) were detergent-solubilized using 10× critical micelle concentration (CMC) n-decyl-β-D-maltoside (DM) (Anatrace, Maumee, OH, USA) in buffer containing 10% (w/v) glycerol, 250 mM NaCl, 20 mM Tris pH 7.5, 0.5 mM phenylmethanesulfonyl fluoride (PMSF), and 1 EDTA-free protease inhibitor pill (Roche, Basel, Switzerland) per 300 mL. When the protein was to be used to assess in vitro binding affinity for the test azoles, detergent solubilized ScLDM6×His recovered after centrifugation was affinity purified using a nickel-nitrilotriacetic acid (Ni-NTA)-agarose matrix (Qiagen). The bound ScLDM6×His was eluted from the matrix using an affinity purification buffer containing 50 mM L-histidine. The L-histidine was removed by washing the enzyme through centrifugal filtration, using a 50 kDa molecular-weight cut-off Amicon Ultra-4 filter (Sigma, Auckland, New Zealand).
The concentration of functional ScLDM6×His purified by the nickel affinity method was quantitated using the standard carbon monoxide (CO) binding method. Type II drug binding assays that measure absorbance changes due to ligand interactions with ScLDM6×His were performed for VCZ and ITC, using an established protocol. The peak429nm-trough410nm difference spectra plotted against azole concentration were used to generate drug binding curves. All calculations were performed using GraphPad Prism 5 Software.

Assay [1] relates to C. albicans strain SC5314. Put plainly: Agarose disk diffusion assay, control strain SC5314. Type of assay: cell-based, Candida albicans. Conditions: for effect of Cdr1p inhibitor RC21v3 on azole susceptibility: SC5314, RC21v3 at 6 µM in the assay medium. Here is the method:
(§1) Agarose diffusion assays were carried out as described previously using the Darlington strain of C. albicans (Pfizer Ltd., Sandwich, UK) and the control C. albicans database strain SC5314, which is not resistant to azoles. The Cdr1p-specific inhibitor RC21v3 and the CaMdr1p-specific inhibitor MCC1189 (MicroCombiChem, Wiesbaden, Germany), included in the assay medium at 6 µM, were used to investigate the contribution of efflux pumps to azole resistance in the Darlington strain [49, 50, 51].
(In general: Agar diffusion results depend on both activity and mobility in agar.)

Assay [2] has as its system S. cerevisiae strain AD3Δ ScErg11 Y140H expressing ScLDM6×His Y140H. The experiment in a line: Broth microdilution drug susceptibility assay (MIC80), strain AD3Δ ScErg11 Y140H. Type of assay: cell-based, Saccharomyces cerevisiae. To be noted: for MIC80: Saccharomyces cerevisiae, 48 h, 30 °C, pH 6.8, mean (± SEM), n = 3; for MIC80 / MIC80/Relative Amount of ScLDM6×His / fold-resistance based on the relative amount of recombinant enzyme compared with strain AD3Δ: strain Y140H; for MIC80/Relative Amount of ScLDM6×His / fold-resistance based on the relative amount of recombinant enzyme compared with strain AD3Δ: relative expression 0.74. Here is the method: (§2) The native ScERG11 gene in yeast cells containing mutant ScERG11-6×His constructs in the PDR5 locus was disrupted by homologous recombination with a cassette encoding the His1 selection marker and sequences homologous with the regions bordering the endogenous ScERG11 ORF to create strains AD3Δ ScErg11 Y140H, AD3Δ ScErg11 I471T and AD3Δ ScErg11Y140H I471T [43]. Transformants were selected on SD-His agar plates incubated at 30 °C for 48–72 h. Genomic DNA was extracted, and DNA sequencing as above was used to confirm deletion of the native ERG11. Strain AD3Δ ScErg11 (denoted as AD3Δ), which overexpresses wild-type ScLDM6×His from the PDR5 locus and has the native ScERG11 gene disrupted, was used as a control strain [43].
(§3) Azole susceptibility was measured as the mean drug concentration required to inhibit 80% of yeast growth (MIC80) compared to a non-drug control, using a standard broth microdilution assay. Serial dilutions of short- (FLC and VCZ), medium- (VT-1161), and long-tailed (ITC and PCZ) azole drugs, and the control drugs micafungin (MCF) and amphotericin B (AMB), were prepared in a 96-well microtiter plate in complete synthetic media lacking uracil, buffered to pH 6.8 [34]. Control and test cells were seeded at an optical density of 600 nm (OD600) of 0.005 (~1.5 × 10^4 colony forming units). After incubation for 48 h at 30 °C with constant agitation (200 rpm), the OD600 nm of each well was measured using a Synergy 2 multi-mode plate reader (BioTek Instruments, Winooski, VT, USA). The experiment was repeated three times (a total of nine measurements for the response of each strain to each drug). GraphPad Prism 5.0 software was used for statistical analysis, using a one-way analysis of variance with a Bonferroni post-hoc test. The statistical significance of comparisons was accepted when p < 0.05.
A general note: Dilution methods test growth across graded concentrations, often in twofold steps.

Assay [3] has as its system S. cerevisiae strain AD3Δ ScErg11 Y140H I471T expressing ScLDM6×His Y140H I471T. The experiment in a line: Broth microdilution drug susceptibility assay (MIC80), strain AD3Δ ScErg11 Y140H I471T. Type of assay: cell-based, Saccharomyces cerevisiae. To be noted: for MIC: Saccharomyces cerevisiae, strain Y140H + I471T, 48 h, 30 °C, pH 6.8, mean (± SEM), n = 3; for MIC80/Relative Amount of ScLDM6×His / fold-resistance based on the relative amount of recombinant enzyme compared with strain AD3Δ: strain Y140H+I471T, relative expression 0.41. Here is the method: as §2, §3

The subject of assay [4] is C. albicans Darlington strain. Put plainly: Agarose disk diffusion assay, Darlington strain. The format is cell-based, Candida albicans. Conditions: for effect of Mdr1 inhibitor MCC1189 on azole susceptibility: MCC1189 at 6 µM in the assay medium; for effect of Cdr1p inhibitor RC21v3 on azole susceptibility: RC21v3 at 6 µM in the assay medium; for agarose diffusion susceptibility: no efflux pump inhibitor. Here is the method:
as §1

Assay [5] has as its target wild-type and Y140F/H mutants of ScLDM6×His. Set-up: method as in earlier work. To be noted: no significant differences, ref 5 (supplement; Sagatova et al. 2016); cited from earlier work.
Setting [6] is: I471T mutant ScLDM6×His, supplement, 'in the 0.5 μM range'.

pIC50, pKd: −log10 of the molar value. Where two headings read alike, the source gives them in different places.

The term pKd denotes −log10 of the Kd, conventionally taken in molar units. In general, pIC50 refers to the negative decadic logarithm of the IC50, by convention in mol/L. What is called MIC80 is the lowest concentration that inhibits either 80% of growth or 80% of the strains tested, depending on the study. Broadly, the MIC is the least concentration at which growth counts as inhibited.

T1 sequence (P10614 whole entry I471T): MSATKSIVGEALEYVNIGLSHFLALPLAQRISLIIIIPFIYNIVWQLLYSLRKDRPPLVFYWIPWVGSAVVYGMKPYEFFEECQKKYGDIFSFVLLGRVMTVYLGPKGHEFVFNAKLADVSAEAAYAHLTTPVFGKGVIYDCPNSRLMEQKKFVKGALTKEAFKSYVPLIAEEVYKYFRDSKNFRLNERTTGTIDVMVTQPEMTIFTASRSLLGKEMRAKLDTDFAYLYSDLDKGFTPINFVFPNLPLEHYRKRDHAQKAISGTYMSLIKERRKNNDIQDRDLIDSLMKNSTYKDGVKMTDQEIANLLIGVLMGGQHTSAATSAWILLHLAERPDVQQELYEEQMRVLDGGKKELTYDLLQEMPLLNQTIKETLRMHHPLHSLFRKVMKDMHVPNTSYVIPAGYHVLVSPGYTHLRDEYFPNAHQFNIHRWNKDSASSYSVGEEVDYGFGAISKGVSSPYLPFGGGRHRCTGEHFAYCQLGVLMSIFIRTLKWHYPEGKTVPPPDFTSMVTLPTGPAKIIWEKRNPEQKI

On to `CCC(C)n1ncn(-c2ccc(N3CCN(c4ccc(OCC5COC(Cn6cncn6)(c6ccc(Cl)cc6Cl)O5)cc4)CC3)cc2)c1=O` (stereo not shown) [ITC, itraconazole], for which the pKd at ScLDM6×His I471T (setting [6]) is about 6.30. The pIC50 at ScLDM6×His I471T was 6.10 to 6.22. On ScLDM6×His I471T (ScLDM6×His I471T, (± SEM)), the IC50 is 0.79 µM, the ΔAmax was 0.06 (0.001), the Hill number was 1.55 (0.19) and the pKd was 6.15. In assay [1], the “effect of Mdr1 inhibitor MCC1189 on azole susceptibility” value (“effect of Mdr1 inhibitor MCC1189” below) was “no effect on susceptibility” and the “effect of Cdr1p inhibitor RC21v3 on azole susceptibility” value (shortened to “effect of Cdr1p inhibitor RC21v3”) is “increased susceptibility”. Also, in assay [2], the MIC80 turned out to be 0.112 µM, the “MIC80/Relative Amount of ScLDM6×His” value worked out at 0.151 µM and the “fold-resistance based on the relative amount of recombinant enzyme compared with strain AD3Δ” value came out at 1.1 ×. For the same molecule, the “susceptibility compared with AD3Δ cells” value in assay [2] (cells overexpressing ScLDM6×His Y140H, not corrected for expression) is “slightly increased susceptibility”. For the same molecule, in assay [3], the MIC turned out to be 0.108 µM, the “MIC80/Relative Amount of ScLDM6×His” value amounted to 0.263 µM and the “fold-resistance based on the relative amount of recombinant enzyme compared with strain AD3Δ” value was 1.8 ×. The “resistance conferred, relative expression taken into account” value in assay [3] (ScLDM6×His Y140H I471T (0.41 of wild-type) vs AD3Δ) worked out at 1.8 fold. In addition, in assay [4], the “effect of Mdr1 inhibitor MCC1189” value is on record as “no effect on susceptibility”, the “effect of Cdr1p inhibitor RC21v3” value was “increased susceptibility” and the “agarose diffusion susceptibility” value was “resistant”. For the same molecule, the pKd in assay [5] was about 6.30.

In turn, `C[C@@H](c1ncncc1F)[C@](O)(Cn1cncn1)c1ccc(F)cc1F` [VCZ, voriconazole] had a pKd at ScLDM6×His I471T (setting [6]) of about 6.30. The pIC50 at ScLDM6×His I471T was 6.10 to 6.22. Further, on ScLDM6×His I471T (ScLDM6×His I471T, (± SEM)), the IC50 stood at 0.75 µM, the ΔAmax is recorded as 0.07 (0.003), the Hill number is 1.88 (0.23) and the pKd is 6.24. The “effect of Mdr1 inhibitor MCC1189” value in assay [1] (SC5314, MCC1189 at 6 µM in the assay medium) is listed as “did not alter the susceptibility”. Besides, in assay [1], the “effect of Cdr1p inhibitor RC21v3” value is “did not alter the susceptibility”. Further, the “agarose diffusion susceptibility” value in assay [1] (SC5314, no efflux pump inhibitor) is “susceptible”. For the same molecule, in assay [2], the MIC80 is 0.164 µM, the “MIC80/Relative Amount of ScLDM6×His” value is 0.221 µM and the “fold-resistance based on the relative amount of recombinant enzyme compared with strain AD3Δ” value is on record as 2.4 ×. Further, the “resistance conferred, relative amount of recombinant ScLDM6×His taken into account” value in assay [2] (ScLDM6×His Y140H vs AD3Δ) is recorded as 2.4 fold. In addition, the “MIC80 higher than strain AD3Δ ScErg11” value in assay [2] (strain AD3Δ ScErg11 Y140H vs AD3Δ, not corrected for expression, p < 0.001) was ~ 2 fold. In addition, in assay [3], the MIC turned out to be 0.25 µM, the “MIC80/Relative Amount of ScLDM6×His” value is 0.609 µM and the “fold-resistance based on the relative amount of recombinant enzyme compared with strain AD3Δ” value worked out at 6.5 ×. Also, the “MIC80 higher than AD3Δ ScErg11 cells” value in assay [3] (strain AD3Δ ScErg11 Y140H I471T, not corrected for expression, p < 0.001) is “approximately 3 fold”. The “MIC80 higher than cells overexpressing ScLDM6×His Y140H” value in assay [3] (strain AD3Δ ScErg11 Y140H I471T, p < 0.001) came out at 1.5 fold. Also, in assay [4], the “effect of Mdr1 inhibitor MCC1189” value is “did not alter the susceptibility”, the “effect of Cdr1p inhibitor RC21v3” value was “did not alter the susceptibility” and the “agarose diffusion susceptibility” value was “resistant”. The pKd in assay [5] was about 6.30.

The values are drawn from PMC8621857, “Structural Insights into the Azole Resistance of the Candida albicans Darlington Strain Using Saccharomyces cerevisiae Lanosterol 14α-Demethylase as a Surrogate” (Journal of Fungi, 2021).
